This passage reports IC50 results from patent US8487108B2, “Piperidinyl carbamate intermediates for the synthesis of aspartic protease inhibitors” (Vitae Pharmaceuticals, Inc., priority 2005, dated 2013).

Some results are limits rather than exact numbers.

This experiment concerns the target T1, trypsin-activated recombinant human renin (Homo sapiens, UniProt P00797).
T1 sequence (P00797 67-406): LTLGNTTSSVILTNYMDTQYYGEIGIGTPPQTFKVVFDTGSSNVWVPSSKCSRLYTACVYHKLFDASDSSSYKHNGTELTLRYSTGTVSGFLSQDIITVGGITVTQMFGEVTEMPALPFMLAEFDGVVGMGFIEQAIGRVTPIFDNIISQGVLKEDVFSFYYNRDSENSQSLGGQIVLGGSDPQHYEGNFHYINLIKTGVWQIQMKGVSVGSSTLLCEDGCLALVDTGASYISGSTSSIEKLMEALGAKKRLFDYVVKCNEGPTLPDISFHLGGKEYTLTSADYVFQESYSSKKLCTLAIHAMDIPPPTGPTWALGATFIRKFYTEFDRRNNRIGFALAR
Kind of experiment: Renin fluorescence assay (internally quenched peptide substrate). It is filed as biochemical. To be noted: compounds I*. In a few lines:
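Compounds (1 nM–10 μM final, DMSO) were mixed with internally quenched angiotensinogen-sequence substrate in pH 7.0 BES/NaCl/BSA buffer, then 0.2-2 nM trypsin-activated human renin added. Rate from the linear fluorescence increase (340 nm excitation, 495 nm emission) over 60-360 min at rt, compared with uninhibited control.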

Broadly, the IC50 is the concentration that gives 50% inhibition. `CNC[C@H](CC1CCCCC1)NC(=O)N1CCC[C@@H]([C@@H](OCCNC(=O)OC)c2cc(F)cc(F)c2)C1` [I*-64a, methyl 2-((R)-((R)-1-((S)-1-cyclohexyl-3-(methylamino)propan-2-ylcarbamoyl)piperidin-3-yl)(3,5-difluorophenyl)methoxy)ethylcarbamate]: the IC50 is less than 1 nM. Next, `CNC[C@H](CC1CCCCC1)NC(=O)N1CCCC[C@@H]([C@H](OCCNC(=O)OC)c2cccc(Cl)c2)C1` [I*-92a, methyl 2-((S)-(3-chlorophenyl)((R)-1-((S)-1-cyclohexyl-3-(methylamino)propan-2-ylcarbamoyl)azepan-3-yl)methoxy)ethylcarbamate]: greater than 50 nM; `COCC(C)(C)C[C@H](N)CNC(=O)N1CCC[C@@H]([C@@H](OCCNC(=O)OC)c2cccc(F)c2)C1` [I*-14a, methyl 2-((R)—((R)-1-((S)-2-amino-5-methoxy-4,4-dimethylpentylcarbamoyl)piperidin-3-yl)(3-fluorophenyl)methoxy)ethylcarbamate]: greater than 50 nM. Next, `CNC[C@H](CC1CCOCC1)NC(=O)N1CCC[C@@H]([C@@H](OCCNC(=O)OC)c2cccc(C(F)(F)F)c2)C1` [I*-144a, methyl 2-((R)-((R)-1-((S)-1-(methylamino)-3-(tetrahydro-2H-pyran-4-yl)propan-2-ylcarbamoyl)piperidin-3-yl)(3-(trifluoromethyl)phenyl)methoxy)ethylcarbamate]: greater than 50 nM; `COC(=O)NCCO[C@@H](c1cc(F)cc(F)c1)[C@@H]1CCCN(C(=O)NC[C@@H](N)C[C@H]2CCCCOC2)C1` [I*-73a, methyl 2-((R)-((R)-1-((S)-2-amino-3-((R)-oxepan-3-yl)propylcarbamoyl)piperidin-3-yl)(3,5-difluorophenyl)methoxy)ethylcarbamate]: less than 10 nM; `CNC[C@H](CC1CCCCC1)NC(=O)N1CCC[C@@H]([C@@H](OCCNC(=O)OC)c2ccc(F)c(Cl)c2)C1` [I*-118a, methyl 2-((R)-(3-chloro-4-fluorophenyl)((R)-1-((S)-1-cyclohexyl-3-(methylamino)propan-2-ylcarbamoyl)piperidin-3-yl)methoxy)ethylcarbamate]: less than 1 nM. For `CNC[C@H](CC1CCCCC1)NC(=O)N1CCC[C@@H]([C@@H](OCCNC(=O)OC)c2nc(C)cs2)C1` [I*-32a, methyl 2-((R)-((R)-1-((S)-1-cyclohexyl-3-(methylamino)propan-2-ylcarbamoyl)piperidin-3-yl)(4-methylthiazol-2-yl)methoxy)ethylcarbamate], the IC50 was less than 10 nM. Next, `CNC[C@H](C[C@H]1CCCCOC1)NC(=O)N1CCC[C@@H]([C@@H](OCCNC(=O)OC)c2cc(F)cc(F)c2)C1` [I*-113a, methyl 2-((R)-(3,5-difluorophenyl)((R)-1-((S)-1-(methylamino)-3-((R)-oxepan-3-yl)propan-2-ylcarbamoyl)piperidin-3-yl)methoxy)ethylcarbamate]: less than 10 nM; `CNC[C@H](CC1CCOCC1)NC(=O)N1CCO[C@@H]([C@@H](OCCNC(=O)OC)c2cccc(Cl)c2)C1` [I*-75a, methyl 2-((S)-(3-chlorophenyl)((R)-4-((S)-1-(methylamino)-3-(tetrahydro-2H-pyran-4-yl)propan-2-ylcarbamoyl)morpholin-2-yl)methoxy)ethylcarbamate]: greater than 50 nM. Next, `CNC[C@H](C[C@H]1CCCOC1)NC(=O)N1CCC[C@@H]([C@@](O)(CCCNC(=O)OC)c2cccc(Cl)c2F)C1` [I*-142a, methyl (S)-4-(3-chloro-2-fluorophenyl)-4-hydroxy-4-((R)-1-((S)-1-(methylamino)-3-((R)-tetrahydro-2H-pyran-3-yl)propan-2-ylcarbamoyl)piperidin-3-yl)butylcarbamate]: less than 10 nM; `CNC[C@H](CC1CCOCC1)NC(=O)N1CCC[C@@H]([C@@H](OCCNC(=O)OC)c2cc(C)cc(F)c2)C1` [I*-52a, methyl 2-((R)-(3-fluoro-5-methylphenyl)((R)-1-((S)-1-(methylamino)-3-(tetrahydro-2H-pyran-4-yl)propan-2-ylcarbamoyl)piperidin-3-yl)methoxy)ethylcarbamate]: less than 10 nM. Next, `CNC[C@H](CC1CCC(F)(F)CC1)NC(=O)N1CCC[C@@H]([C@@H](OCCNC(=O)OC)c2cccc(F)c2)C1` [I*-120a, methyl 2-((R)—((R)-1-((S)-1-(4,4-difluorocyclohexyl)-3-(methylamino)propan-2-ylcarbamoyl)piperidin-3-yl)(3-fluorophenyl)methoxy)ethylcarbamate]: less than 1 nM; `CNC[C@H](CC1CCOCC1)NC(=O)N1CCC[C@@H]([C@@H](OCCNC(=O)OC)c2ccc(F)c(Cl)c2F)C1` [I*-148a, methyl 2-((R)-(3-chloro-2,4-difluorophenyl)((R)-1-((S)-1-(methylamino)-3-(tetrahydro-2H-pyran-4-yl)propan-2-ylcarbamoyl)piperidin-3-yl)methoxy)ethylcarbamate]: greater than 50 nM. As to `CNC[C@H](CC1CCCCC1)NC(=O)N1CCC[C@@H]([C@@H](OCCNC(=O)OC)c2cc(F)c(F)c(F)c2)C1` [I*-119a, methyl 2-((R)-((R)-1-((S)-1-cyclohexyl-3-(methylamino)propan-2-ylcarbamoyl)piperidin-3-yl)(3,4,5-trifluorophenyl)methoxy)ethylcarbamate], the IC50 was less than 10 nM. Regarding `CNC[C@H](CC1CCCOCC1)NC(=O)N1CCC[C@@H]([C@@H](OCCNC(=O)OC)c2cccc(Cl)c2F)C1` (stereo partly drawn) [I*-137a, methyl 2-((R)-(3-chloro-2-fluorophenyl)((3R)-1-((S)-1-(methylamino)-3-(oxepan-4-yl)propan-2-ylcarbamoyl)piperidin-3-yl)methoxy)ethylcarbamate], the IC50 is less than 10 nM. With `COC(=O)NCCO[C@@H](c1cccc(Cl)c1)[C@@H]1CCCN(C(=O)N[C@H]2CNC[C@@H]2CC(C)C)C1` (relative stereo) [I*-11a, methyl 2-((R)-(3-chlorophenyl)((R)-1-((3R*,4S*)-4-isobutylpyrrolidin-3-ylcarbamoyl)piperidin-3-yl)methoxy)ethylcarbamate], the IC50 was less than 50 nM. Next, `CNC[C@H](CC12CC3CC(CC(C3)C1)C2)NC(=O)N1CCC[C@@H]([C@@H](OCCNC(=O)OC)c2cccc(F)c2)C1` [I*-145a, methyl 2-((R)-((R)-1-((S)-1-(1-adamantyl)-3-(methylamino)propan-2-ylcarbamoyl)piperidin-3-yl)(3-fluorophenyl)methoxy)ethylcarbamate]: less than 10 nM.

`CNC[C@H](CC1CCCCC1)NC(=O)N1CCC[C@@H]([C@@H](OCCNC(=O)OC)c2cc(F)ccc2F)C1` [I*-63a, methyl 2-((R)-((R)-1-((S)-1-cyclohexyl-3-(methylamino)propan-2-ylcarbamoyl)piperidin-3-yl)(2,5-difluorophenyl)methoxy)ethylcarbamate]: the IC50 was less than 1 nM.

In the case of `CNC[C@H](CC1CCCCC1)NC(=O)N1CCC[C@@H]([C@@H](OCCNC(=O)OC)c2cc(Cl)ccc2C)C1` [I*-85a, methyl 2-((R)-(5-chloro-2-methylphenyl)((R)-1-((S)-1-cyclohexyl-3-(methylamino)propan-2-ylcarbamoyl)piperidin-3-yl)methoxy)ethylcarbamate], the IC50 was less than 1 nM. Next, `CNC[C@H](CC12CC3CC(CC1C3)C2)NC(=O)N1CCC[C@@H]([C@@H](OCCNC(=O)OC)c2cc(F)ccc2F)C1` [I*-149a, methyl 2-((R)-((R)-1-((S)-1-(3-noradamantyl)-3-(methylamino)propan-2-ylcarbamoyl)piperidin-3-yl)(2,5-difluorophenyl)methoxy)ethylcarbamate]: less than 10 nM; `CNC[C@H](CC1CCOCC1)NC(=O)N1CCC[C@@H]([C@@H](OCCNC(=O)OC)c2ccccc2)C1` [I*-3a, methyl 2-((R)—((R)-1-((S)-4-(methylamino)-3-(tetrahydro-2H-pyran-4-yl)propan-2-ylcarbamoyl)piperidin-3-yl)(phenyl)methoxy)ethylcarbamate]: less than 50 nM. Next, `CNC[C@@H](NC(=O)N1CCC[C@@H]([C@@H](OCCNC(=O)OC)c2cccc(Cl)c2)C1)[C@@H](O)C1CCCC1` [I*-67a, methyl 2-((R)-(3-chlorophenyl)((R)-1-((1S,2R)-1-cyclopentyl-1-hydroxy-3-(methylamino)propan-2-ylcarbamoyl)piperidin-3-yl)methoxy)ethylcarbamate]: less than 10 nM; `CCNC(=O)CO[C@@H](c1cccc(Cl)c1)[C@@H]1CCCN(C(=O)N[C@H](CNC)C[C@H]2CCCCOC2)C1` [I*-61a, (R)-3-((R)-(3-chlorophenyl)(2-(ethylamino)-2-oxoethoxy)methyl)-N-((2S)-1-(methylamino)-3-((R)-oxepan-3-yl)propan-2-yl)piperidine-1-carboxamide]: less than 10 nM. In the case of `CNC[C@H](CC1CCCCC1)NC(=O)N1CCC[C@@H]([C@H](CCCNC(=O)OC)c2cccc(F)c2)C1` [I*-22a, methyl (S)-4-((S)-1-((S)-1-cyclohexyl-3-(methylamino)propan-2-ylcarbamoyl)piperidin-3-yl)-4-(3-fluorophenyl)butylcarbamate], the IC50 was greater than 50 nM.
